Patent US20230263459A1, “DEVICE AND METHOD FOR PREVENTING SUDDEN DEATH AND PROTECTING OXYGEN STATUS DURING SEIZURE ACTIVITY” (priority 2020, published 2023)
“Also recorded” adds a separate entry of the source. Where a name gives a salt, the structure may show the parent alone. Read-outs that look alike come from different tables or passages of the source.

Key:
[1] = tested on: rat model of complete airway occlusion; settings: for time to respiratory arrest (mean): air control 53.6; for number of breath attempts during occlusion: FIG. 7D, hydrochloride
Description: Adult male Sprague Dawley rats (AGE median=63, mean=88 days; WEIGHT median=306, mean=329 grams; Envigo Chicago, Ill.) were housed in AAALAC-accredited facilities and maintained on a 12 hour light:dark cycle with a temperature of 23° C. and humidity of 55%, monitored daily, and had unrestricted access to water and food. Urethane (1.5 g/kg ip) was used for anesthesia in all animals.
ECG RECORDINGS—Limb-lead ECG was recorded using copper strips coated with conductive gel wrapped around both forelimbs and the base of the tail. Signals were amplified and filtered to pass 1 Hz to 1 kHz (Model 1800 AC amplifier with headstages; A-M Systems, Sequim, Wash.) and digitized at 2 kHz (Microl401 controlled by Spike 2 software; Cambridge Electronic Design, Cambridge, UK). Rhythm was assessed by reviewing P waves and associated QRS complexes for variations in wave shape, beat-to-beat intervals, and atrial-ventricular coupling.
The raw pulsatile waveform of the pulse oximeter was digitized (2 kHz) with other signals.
INSPIRATORY AIRWAY PRESSURES—A pressure transducer (CyQ, Columbus Instruments, Columbus, Ohio) was connected to the sidearm of a T-shaped tracheal tube (see infra). Inspiratory pressures during complete airway occlusion were measured relative to those observed during baseline breathing. Signals were digitized along with other signals recorded at the same time.
TRACHEAL IMPLANTS—A T-shaped tracheal tube was placed through an incision between cartilaginous rings of the trachea after the trachea was exposed in the neck. The distal arm was “sealed” in the trachea with suture around the trachea, compressing it against the outside wall of the implant.
CONTROLLED AIRWAY OCCLUSION—Obstructive apnea was produced with controlled airway occlusion. The exterior arm in the straight path with the implanted arm served breathing or could be occluded. A pressure transducer on the tracheal tube sidearm recorded forces developed during either normal breathing with the tracheal tube open to the atmosphere or during complete closure of the open port.
Injected volumes were 12.5 ml/kg and averaged 4.25 f 1.00 ml/animal (mean, standard deviation). Fluoxetine hydrochloride (cat #1279804) was obtained from Sigma Aldrich Inc. (St. Louis, Mo.).
Gas was delivered at ˜4 liters/min. In all animals, the occlusion was left in place until 10 seconds after the point of respiratory arrest, which was defined as the time of the peak of the last breath attempt.

[2] = tested on: audiogenic seizure-prone mice; settings: oxygen, FIG. 3
Source text: In audiogenic seizure-prone mice, seizures are stereotyped and consist of a running phase, a clonic phase, and a tonic phase that included hindlimb extension.

[3] = tested on: audiogenic seizure prone mice; settings: cited from earlier work
[4] = fluoxetine 25 mg/kg IP vs saline

## O=O [oxygen]
[1]; 50% oxygen/50% air 30 seconds prior to occlusion vs air
  increase in the time to respiratory arrest: 19%
[1]; 50% oxygen/50% air for 30 seconds prior to airway occlusion, n=7
  time to respiratory arrest (mean): 63.9 s
[1]; 50% oxygen/50% air for 30 seconds vs air
  number of breath attempts: significantly increased
[1]; animals breathing oxygen versus air, FIG. 1C
  delay in desaturation onset: ~40 s
[1]; oxygen 30 seconds prior to occlusion vs air
  increase in the time to respiratory arrest: 52%
[1]; oxygen 5 minutes prior to occlusion vs air
  increase in the time to respiratory arrest: 65%
[1]; oxygen animals, n=12, mean, standard deviation
  minimum pulse oximetry level: 37%±11
[1]; oxygen atmosphere for 5 minutes prior to airway occlusion
  time to respiratory arrest (mean): 88.4 s
[1]; oxygen enriched atmosphere vs room air, FIG. 1A
  time to respiratory arrest relative to room air: nearly doubled; also recorded: nearly twice as long
[1]; oxygen prior to occlusion vs air, FIG. 1D
  total number of breath attempts during complete airway closure: significantly greater
[1]; oxygen stream for only 30 seconds prior to airway occlusion (brief O2), n=10
  time to respiratory arrest (mean): 81.6 s
[1]; oxygen-breathing rat, pulse oximetry, FIGS. 2A-2B
  duration of sustained high level of oxygen saturation before decline: about 30 seconds
[1]; single animal, FIG. 2A, oxygen for five minutes before occlusion, air animal 53
  time of last breath attempt (respiratory arrest) after occlusion onset: 100 s
[1]; single animal, FIG. 2A, oxygen for five minutes before occlusion, air animal about 40
  onset of ST segment elevation, bradycardia and premature ventricular contractions post-occlusion: about 80 seconds
[2]
  time in tonic hindlimb extension phase: unchanged
  time to respiratory arrest: prolonged
  total seizure time: unchanged
[3]; DBA/2 mice, seizures in an oxygen atmosphere (Venit 2004; Willott 1976)
  protection from normally fatal audiogenic seizures: protected
[3]; oxygen treatment (Venit 2004; Willott 1976)
  survival of animals: 100%

## CNCCC(Oc1ccc(C(F)(F)F)cc1)c1ccccc1 (centres unmarked) [fluoxetine, Fluoxetine hydrochloride]
[1]; SSRI group vs saline, bolus gas delivery
  attempts needed to effect resuscitation after respiratory arrest: required more attempts on average
[1]; fluoxetine 25 mg/kg IP one hour post-injection vs saline
  increase in the time to respiratory arrest: 28%
[1]; [4]
  rate of desaturation during occlusion: did not significantly alter
  number of breath attempts during occlusion: no difference
[1]; fluoxetine 25 mg/kg IP vs saline, FIG. 7B
  inspiratory forces generated during breath attempts while occluded: no apparent differences
[1]; fluoxetine 25 mg/kg IP vs saline, listed as Fluoxetine
  number of breath attempts during occlusion: nearly equivalent
[1]; fluoxetine 25 mg/kg IP vs saline, FIGS. 7E, 7F
  respiratory rate: significantly slowed
[1]; fluoxetine 25 mg/kg IP, 60 min before occlusion, n=8, saline control 49.8/49.9
  time to respiratory arrest (average): 63.8 s
[1]; fluoxetine 25 mg/kg IP, saline group 37%, not statistically significant
  minimum oxygen saturation: 34%
[3]; multiple strains of audiogenic seizure prone mice (Faingold 2011, 2014; Zeng 2015)
  protection against death: protect against death
